# Source: patent publication US4521417A, “Geranylgeranylacetamide compounds having a piperazine ring, salts thereof, pharmaceutical compositions containing said compounds, and method of treating ulcers in mammals” (Nihon Iyakuhin Kogyo Co., Ltd., priority 1982, dated 1985)
# Where a name gives a salt, the structure may show the parent alone.
# Tests used:
# ulcers = assay: Pharmacological Test 3: indomethacine-induced ulcer in rats, drug oral, total ulcer length; type: in vivo, STD Wistar male rats; details: Rattus norvegicus, 10 minutes before indomethacine 40 mg/kg s.c., 7 hours, n=10 rats, read-out: Percent inhibition (total length of ulcers)
# Procedure: Pharmacological tests were conducted on the above-mentioned known anti-ulcerogenic agents, the typical known anti-ulcerogenic compound of formula (A)-1 given hereinabove, and the compounds of formula (I) in accordance with this invention in order to examine their anti-ulcerogenic activities. In these pharmacological tests, the numbers attached to the compounds of this invention correspond to the numbers of Production Examples given hereinbelow. STD Wistar male rats (body weight 170 to 200 g) were caused to fast for 24 hours, and indomethacine dissolved in a 5% aqueous solution of sodium hydrogen carbonate was subcutaneously administered in a dose of 40 mg/kg. Seven hours later, the animals were autopsied. Each of the test drugs was administered orally to the stomach 10 minutes before administration of indomethacine. The total length of ulcers formed was compared with that in a control, and the percent inhibition was calculated.
# ulcer = assay: Pharmacological Test 1: pylorus-ligation ulcer in fasted rats, drug intraduodenal, ulcer area after 8 h; type: in vivo, STD Wistar-strain male rats; details: Rattus norvegicus, pylorus ligated, n=15 rats, read-out: Percent inhibition (ulcer area)
# Procedure: (§1) Pharmacological tests were conducted on the above-mentioned known anti-ulcerogenic agents, the typical known anti-ulcerogenic compound of formula (A)-1 given hereinabove, and the compounds of formula (I) in accordance with this invention in order to examine their anti-ulcerogenic activities.
# (§2) In these pharmacological tests, the numbers attached to the compounds of this invention correspond to the numbers of Production Examples given hereinbelow.
# STD Wistar-strain male rats (body weight 170 to 200 g) were caused to fast for 72 hours, and then under ether anesthesia, were incised at the abdomen. The pylorus portion was ligated, and each of the test drugs was intraduodenally administered. The abdomen was closed and sewn. Eight hours later, the abdomen was cut open, and the stomach was taken out. The area of a generated ulcer was measured by a stereoscopic microscope, and the percent inhibition was calculated by comparison from a control to which the drug was not administered.
# [1] = test system: ulcers generated in the stomach body; assay: Pharmacological Test 2: water-immersion stress ulcer in rats, drug oral, total ulcer length; type: in vivo, STD Wistar-strain male rats; details: Rattus norvegicus, 1 hour before water immersion stress at 23±1° C., 18 hours, n=10 rats, read-out: Percent inhibition (total length of ulcers)
# Procedure: as §1, §2
# STD Wistar-strain male rats (body weight 170 to 200 g) were caused to fast for 30 hours, and put in a wire cage. They were immersed in a constant temperature water tank kept at 23±1° C. to their emsistermun. Eighteen hours later, the animals were taken out, and incised at the abdomen. The stomach was cut open and examined microscopically. One hour before applying stress to the animals by water immersion, each of the test drugs was orally administered. The total length of ulcers generated in the stomach body was compared with that in a control, and the rate of inhibiting ulcer formation was calculated.
SMILES,inhibition in vivo at 200 mg/kg (ulcers) [%],inhibition in vivo at 300 mg/kg (ulcer) [%],inhibition in vivo at 300 mg/kg [1] [%],inhibition in vivo at 300 mg/kg (ulcers) [%]
"CC(C)=CCC/C(C)=C/CC/C(C)=C/CC/C(C)=C/CCC(=O)N1C(C)CNCC1C (stereo not drawn) [Compound (15), 2,6-dimethyl-N-geranylgeranylacetyl piperazine]",77.2,80,80,
"CC(C)=CCC/C(C)=C/CC/C(C)=C/CC/C(C)=C/CCC(=O)N1CCNCC1 [Compound (1), N-geranylgeranylacetyl piperazine]",66,68.2,73.8,
"CC(C)=CCCC(C)=CCCC(C)=CCCC(C)=CCCC(=O)N1CCNC(C)C1 (stereo not drawn) [Compound (13), methyl-N-geranylgeranylacetyl piperazine]",79.2,77.1,82.8,
"CC(C)=CCC/C(C)=C/CC/C(C)=C/CC/C(C)=C/CCC(=O)N1CCN(CC=C(C)C)CC1 [Compound (9), N-prenyl-N'-geranylgeranylacetyl piperazine]",57.2,64,59,
"CCCCN1CCN(C(=O)CC/C=C(\C)CC/C=C(\C)CC/C=C(\C)CCC=C(C)C)CC1 [Compound (6), N-butyl-N'-geranylgeranylacetyl piperazine]",55.3,66.5,60.6,
"CC(C)=CCC/C(C)=C/CC/C(C)=C/CC/C(C)=C/CCC(=O)N1CCN(C)CC1 [Compound (2), N-methyl-N'-geranylgeranylacetyl piperazine]",75.3,74.5,76,
"CC(C)=CCC/C(C)=C/CC/C(C)=C/CC/C(C)=C/CCC(=O)N1CCN(Cc2ccccc2)CC1 [Compound (12), N-benzyl-N'-geranylgeranylacetyl piperazine]",62.1,64.9,61.1,
"NC[C@H]1CC[C@H](C(=O)Oc2ccc(CCC(=O)O)cc2)CC1 [Cetraxate hydrochloride, 4-(2-carboxyethyl)-phenyl-trans-4-aminomethylcyclohexanecarboxylate hydrochloride, reference compound]",,27.8,31.6,25.3
CCC1CN(C(=O)CCC=C(C)CCC=C(C)CCC=C(C)CCC=C(C)C)CCN1 (stereo not drawn) [Compound (14)],73.5,71.5,70.2,
"CC(C)=CCC/C(C)=C/CC/C(C)=C/CC/C(C)=C/CCC(=O)N1CCN(CCCCCl)CC1 [Compound (10), N-4-chlorobutyl-N'-geranylgeranylacetyl piperazine]",70.2,65.3,67.3,
"CCN1CCN(C(=O)CC/C=C(\C)CC/C=C(\C)CC/C=C(\C)CCC=C(C)C)CC1 [Compound (3), N-ethyl-N'-geranylgeranylacetyl piperazine]",62.1,70.1,68.7,
"CC(C)=CCC/C(C)=C/CC/C(C)=C/CC/C(C)=C/CCC(=O)N1CCN(C(C)C)CC1 [Compound (5), N-isopropyl-N'-geranylgeranylacetyl piperazine]",60,66.5,64,
"CC(C)=CCCC(C)=CCCC(C)=CCCC(=O)N1CCN(C)CC1 [Comparative compound of formula (A)-1, reference compound]",,53.3,45.6,51.2
"CC1(C)[C@@H](OC(=O)CCC(=O)O)CC[C@]2(C)[C@H]3C(=O)C=C4[C@@H]5C[C@@](C)(C(=O)O)CC[C@]5(C)CC[C@@]4(C)[C@]3(C)CC[C@@H]12 [Carbenoxolone sodium, glycyrrhetinic acid hydrogen succinate, disodium salt, reference compound]",,60.5,8.6,63.6
"C=CCN1CCN(C(=O)CC/C=C(\C)CC/C=C(\C)CC/C=C(\C)CCC=C(C)C)CC1 [Compound (8), N-allyl-N'-geranylgeranylacetyl piperazine]",72.5,70.5,68.5,
"CC(C)=CCC/C(C)=C/CC/C(C)=C/CC/C(C)=C/CCC(=O)N1CCN(CCCBr)CC1 [Compound (11), N-3-bromopropyl-N'-geranylgeranylacetyl piperazine]",65.6,66.8,65.3,
"CC(C)=CCCC(C)=CCCC(C)=CCCC(=O)OC/C=C(\C)CCC=C(C)C [Gefarnate, geranyl farnesylacetate, reference compound]",,30,23.6,33.1
"CCCN1CCN(C(=O)CC/C=C(\C)CC/C=C(\C)CC/C=C(\C)CCC=C(C)C)CC1 [Compound (4), N-n-propyl-N'-geranylgeranylacetyl piperazine]",56.5,64.7,69,
"CCCCCN1CCN(C(=O)CC/C=C(\C)CC/C=C(\C)CC/C=C(\C)CCC=C(C)C)CC1 [Compound (7), N-n-amyl-N'-geranylgeranylacetyl piperazine]",65.3,67.3,64.6,
